Test results taken from ChEMBL document CHEMBL3885881, “DrugMatrix”.

Organism: Rattus norvegicus
Assay: DrugMatrix - Regimen: Daily Repeat
Type: toxicity, organism-based, Sprague-Dawley
Set-up: regimen Daily Repeat, gender Male, age 6-8 weeks
Conditions: in vivo, po, route oral GAVAGE, […]; for ABSOLUTE BASOPHIL / ABSOLUTE EOSINOPHIL / ABSOLUTE LYMPHOCYTE / ABSOLUTE SEGMENTED NEUTROPHIL / BASOPHIL / EOSINOPHIL / ERYTHROCYTE COUNT / HEMATOCRIT / HEMOGLOBIN / LEUKOCYTE COUNT / LYMPHOCYTE / MEAN CORPUSCULAR HEMOGLOBIN / MEAN CORPUSCULAR HEMOGLOBIN CONCENTRATION / MEAN CORPUSCULAR VOLUME / MONOCYTE / NEUTROPHIL / NUCLEATED RED BLOOD CELLS / PLATELET COUNT: tissue Blood; for ALANINE AMINOTRANSFERASE / ALBUMIN / ALKALINE PHOSPHATASE / ASPARTATE AMINOTRANSFERASE / BLOOD UREA NITROGEN / CARBON DIOXIDE / CHLORIDE / CHOLESTEROL / CREATINE PHOSPHOKINASE / CREATININE / GLUCOSE / LACTATE DEHYDROGENASE / LIPASE / PHOSPHORUS / POTASSIUM / SODIUM / TOTAL BILIRUBIN / TOTAL PROTEIN / URIC ACID: tissue Plasma
[1] = 0 mg/kg, 72 h, dose level Control, time 3 day
[2] = 0 mg/kg, 120 h, dose level Control, time 5 day
[3] = 15 mg/kg, 72 h, dose level Low, time 3 day

SMILES: CCC(C)(C)C(=O)O[C@H]1C[C@@H](C)C=C2C=C[C@H](C)[C@H](CC[C@@H]3C[C@@H](O)CC(=O)O3)[C@H]21 [SIMVASTATIN]
- ABSOLUTE BASOPHIL [1]: 0 CELLS/uL
- ABSOLUTE EOSINOPHIL [1]: 14 CELLS/uL
- ABSOLUTE LYMPHOCYTE [1]: 11144.67 CELLS/uL
- ABSOLUTE SEGMENTED NEUTROPHIL [1]: 535.5 CELLS/uL
- BASOPHIL [1]: 0%
- EOSINOPHIL [1]: 0.17%
- ERYTHROCYTE COUNT [1]: 5.08 x10E6/uL
- HEMATOCRIT [1]: 32.32%
- HEMOGLOBIN [1]: 12.87 G/DL
- LEUKOCYTE COUNT [1]: 11.72 x10E3/uL
- LYMPHOCYTE [1]: 94.67%
- MEAN CORPUSCULAR HEMOGLOBIN [1]: 25.37 pg
- MEAN CORPUSCULAR HEMOGLOBIN CONCENTRATION [1]: 39.85 G/DL
- MEAN CORPUSCULAR VOLUME [1]: 63.58 fL
- MONOCYTE [1]: 0.17%
- NEUTROPHIL [1]: 5%
- NUCLEATED RED BLOOD CELLS [1]: 0 /100WBC
- PLATELET COUNT [1]: 1084 x10E3/uL
- ALANINE AMINOTRANSFERASE [1]: 67.5 u/L
- ALBUMIN [1]: 4.02 G/DL
- ALKALINE PHOSPHATASE [1]: 374.17 u/L
- ASPARTATE AMINOTRANSFERASE [1]: 83.5 u/L
- BLOOD UREA NITROGEN [1]: 14.5 mg/dL
- CARBON DIOXIDE [1]: 30 mmol/L
- CHLORIDE [1]: 100.5 MEQ/L
- CHOLESTEROL [1]: 71.33 mg/dL
- CREATINE PHOSPHOKINASE [1]: 268.33 u/L
- CREATININE [1]: 0.16 mg/dL
- GLUCOSE [1]: 170.5 mg/dL
- LACTATE DEHYDROGENASE [1]: 81.17 u/L
- LIPASE [1]: 16.67 u/L
- PHOSPHORUS [1]: 10.07 mg/dL
- POTASSIUM [1]: 5.03 MEQ/L
- SODIUM [1]: 142.92 MEQ/L
- TOTAL BILIRUBIN [1]: 0.17 mg/dL
- TOTAL PROTEIN [1]: 5.63 G/DL
- URIC ACID [1]: 0.5 mg/dL
- ABSOLUTE BASOPHIL [2]: 0 CELLS/uL
- ABSOLUTE EOSINOPHIL [2]: 37.5 CELLS/uL
- ABSOLUTE LYMPHOCYTE [2]: 8049.5 CELLS/uL
- ABSOLUTE SEGMENTED NEUTROPHIL [2]: 646.83 CELLS/uL
- BASOPHIL [2]: 0%
- EOSINOPHIL [2]: 0.5%
- ERYTHROCYTE COUNT [2]: 5.36 x10E6/uL
- HEMATOCRIT [2]: 33.9%
- HEMOGLOBIN [2]: 13.02 G/DL
- LEUKOCYTE COUNT [2]: 8.82 x10E3/uL
- LYMPHOCYTE [2]: 90.17%
- MEAN CORPUSCULAR HEMOGLOBIN [2]: 24.32 pg
- MEAN CORPUSCULAR HEMOGLOBIN CONCENTRATION [2]: 38.42 G/DL
- MEAN CORPUSCULAR VOLUME [2]: 63.32 fL
- MONOCYTE [2]: 1.17%
- NEUTROPHIL [2]: 8.17%
- NUCLEATED RED BLOOD CELLS [2]: 0.17 /100WBC
- PLATELET COUNT [2]: 1231.5 x10E3/uL
- ALANINE AMINOTRANSFERASE [2]: 62 u/L
- ALBUMIN [2]: 3.97 G/DL
- ALKALINE PHOSPHATASE [2]: 303.67 u/L
- ASPARTATE AMINOTRANSFERASE [2]: 84.5 u/L
- BLOOD UREA NITROGEN [2]: 14.83 mg/dL
- CARBON DIOXIDE [2]: 31.83 mmol/L
- CHLORIDE [2]: 97 MEQ/L
- CHOLESTEROL [2]: 68.83 mg/dL
- CREATINE PHOSPHOKINASE [2]: 411.33 u/L
- CREATININE [2]: 0.16 mg/dL
- GLUCOSE [2]: 170.17 mg/dL
- LACTATE DEHYDROGENASE [2]: 88.5 u/L
- LIPASE [2]: 9.5 u/L
- PHOSPHORUS [2]: 9.98 mg/dL
- POTASSIUM [2]: 5.72 MEQ/L
- SODIUM [2]: 141.62 MEQ/L
- TOTAL BILIRUBIN [2]: 0.1 mg/dL
- TOTAL PROTEIN [2]: 5.67 G/DL
- URIC ACID [2]: 0.52 mg/dL
- ABSOLUTE BASOPHIL [3]: 0 CELLS/uL
- ABSOLUTE EOSINOPHIL [3]: 0 CELLS/uL
- ABSOLUTE LYMPHOCYTE [3]: 9235.67 CELLS/uL
- ABSOLUTE SEGMENTED NEUTROPHIL [3]: 962.33 CELLS/uL
- BASOPHIL [3]: 0%
- EOSINOPHIL [3]: 0%
- ERYTHROCYTE COUNT [3]: 5.23 x10E6/uL
- HEMATOCRIT [3]: 32.6%
- HEMOGLOBIN [3]: 12.9 G/DL
- LEUKOCYTE COUNT [3]: 10.33 x10E3/uL
- LYMPHOCYTE [3]: 89.33%
- MEAN CORPUSCULAR HEMOGLOBIN [3]: 24.7 pg
- MEAN CORPUSCULAR HEMOGLOBIN CONCENTRATION [3]: 39.57 G/DL
- MEAN CORPUSCULAR VOLUME [3]: 62.4 fL
- MONOCYTE [3]: 1.33%
- NEUTROPHIL [3]: 9.33%
- NUCLEATED RED BLOOD CELLS [3]: 0 /100WBC
- PLATELET COUNT [3]: 1186.33 x10E3/uL
- ALANINE AMINOTRANSFERASE [3]: 75 u/L
- ALBUMIN [3]: 4.07 G/DL
- ALKALINE PHOSPHATASE [3]: 310.67 u/L
- ASPARTATE AMINOTRANSFERASE [3]: 85.33 u/L
- BLOOD UREA NITROGEN [3]: 14 mg/dL
- CARBON DIOXIDE [3]: 29.33 mmol/L
- CHLORIDE [3]: 103 MEQ/L
- CHOLESTEROL [3]: 68.67 mg/dL
- CREATINE PHOSPHOKINASE [3]: 229.33 u/L
- CREATININE [3]: 0.12 mg/dL
- GLUCOSE [3]: 170.33 mg/dL
- LACTATE DEHYDROGENASE [3]: 76.33 u/L
- LIPASE [3]: 10 u/L
- PHOSPHORUS [3]: 9.87 mg/dL
- POTASSIUM [3]: 5.16 MEQ/L
- SODIUM [3]: 146.93 MEQ/L
- TOTAL BILIRUBIN [3]: 0.13 mg/dL
- TOTAL PROTEIN [3]: 5.67 G/DL
- URIC ACID [3]: 0.77 mg/dL
